In brackets after ≈: the same amount, converted by molar mass. Blank lines part the entries; values can stand above or below the compound they belong to.
Columns and labels:
[1] = Inhibition of IL-2 production in CD28-stimulated human Jurkat E6.1 cells; type: functional, cell-based
[2] = Inhibition of tyrosine kinase (unknown origin); parameters: species or system Homo sapiens
L929 [3] = test: Cytotoxicity against mouse L929 cells assessed as reduction in cell viability; type: functional, cell-based
Bacillus subtilis = test: Antibacterial activity against Bacillus subtilis assessed as zone of inhibition by disc diffusion method; type: functional
Staphylococcus aureus = test: Antibacterial activity against Staphylococcus aureus assessed as zone of inhibition; type: functional
Micrococcus luteus [4] = test: Antibacterial activity against Micrococcus luteus assessed as bacterial growth inhibition; type: functional
SW480 = test: Cytotoxicity against human SW480 cells assessed as reduction in cell growth by MTT assay; type: functional, cell-based
Enterococcus faecalis = test: Antibacterial activity against Enterococcus faecalis assessed as zone of inhibition; type: functional
RAW264.7 = test: Anti-inflammatory activity in mouse RAW264.7 cells assessed as inhibition of NO production; type: functional, cell-based
Splenocyte = test: Immunosuppressive activity in BALB/c mouse splenocyte assessed as reduction in ConA-induced mouse T-lymphocytes proliferation incubated for 48 hrs by MTT assay; type: functional, cell-based
[5] = Cytotoxicity against BALB/c mouse Splenocyte assessed as reduction in cell viability incubated for 48 hrs by MTT assay; type: toxicity, cell-based; conditions: splenocytes
[6] = Antioxidant activity assessed as DPPH radical scavenging activity at 50 uM; type: functional
Jurkat = test: Antiproliferative activity against human Jurkat cells assessed as reduction in cell viability measured after 24 hrs by MTT assay; type: functional, cell-based
Ramos = test: Antiproliferative activity against human Ramos cells assessed as reduction in cell viability measured after 24 hrs by MTT assay; type: functional, cell-based
[7] = molecular target: Hyaluronan-binding protein 2 (Homo sapiens, UniProt Q14520); test: Inhibition of spermidine-induced human pro-PHBP autoactivation
L929 [8] = test: Cytotoxicity against mouse L929 cells assessed as reduction in cell viability by MTT assay; type: functional, cell-based
Caenorhabditis elegans = test: Nematicidal activity against Caenorhabditis elegans; type: functional; conditions: read-out: LD50 (the source's name)
Yarrowia lipolytica = test: Antifungal activity against Yarrowia lipolytica assessed as zone of inhibition; type: functional
Mucor hiemalis = test: Antifungal activity against Mucor hiemalis assessed as inhibition of fungal growth measured after 18 to 48 hrs by microbroth dilution assay; type: functional; conditions: time 18-48 hrs
Micrococcus luteus [9] = test: Antibacterial activity against Micrococcus luteus assessed as reduction in bacterial growth; type: functional

Chain of Hyaluronan-binding protein 2 (Q14520 24-313 limits assumed): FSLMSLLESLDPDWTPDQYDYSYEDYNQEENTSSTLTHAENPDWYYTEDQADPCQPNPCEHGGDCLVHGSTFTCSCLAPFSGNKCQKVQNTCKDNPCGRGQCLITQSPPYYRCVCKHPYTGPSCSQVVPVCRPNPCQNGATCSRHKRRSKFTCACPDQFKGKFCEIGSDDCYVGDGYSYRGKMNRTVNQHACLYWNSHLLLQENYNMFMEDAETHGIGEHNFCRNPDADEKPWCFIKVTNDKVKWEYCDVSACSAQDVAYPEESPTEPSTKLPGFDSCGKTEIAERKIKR
Chain of Hyaluronan-binding protein 2 (Q14520 314-560 limits assumed): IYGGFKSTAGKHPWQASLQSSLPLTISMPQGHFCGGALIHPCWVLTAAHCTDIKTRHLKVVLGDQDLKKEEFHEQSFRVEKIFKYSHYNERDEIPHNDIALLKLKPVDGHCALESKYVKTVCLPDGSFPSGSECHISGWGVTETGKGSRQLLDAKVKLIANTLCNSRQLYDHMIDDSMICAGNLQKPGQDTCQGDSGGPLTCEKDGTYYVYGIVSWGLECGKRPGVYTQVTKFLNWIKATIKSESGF

- IC50 [1]: 2.4 µM
- IC50 [2]: 0.045 µM
Structure (SMILES): COC1C(=O)c2c(O)cccc2C2=C3CCC(=O)c4c(O)ccc(c43)C21 (centres undefined)

- MIC (Micrococcus luteus [4]): 16.7 µg/mL (≈ 55.6 µM)
Structure (SMILES): Oc1cccc2c3c(ccc12)-c1ccc(O)c2c(O)ccc-3c12

- IC50 (Jurkat): 14.1 µM
- IC50 (Ramos): 6.6 µM
Structure (SMILES): O=C1C[C@]2(O)C(=C3C=CC(=O)c4c(O)ccc2c43)c2cccc(O)c21

- IC50 [7]: 14 µM
Structure (SMILES): O=C1C(O)=c2c(c3ccc(=O)c4c(O)ccc2c4-3)-c2cccc(O)c21

- MIC (Micrococcus luteus [4]): 8.3 µg/mL (≈ 26.4 µM)
Structure (SMILES): COc1cccc2c3c(ccc12)-c1ccc(O)c2c(O)ccc-3c12

- IC50 [1]: > 5 µM
- IC50 [2]: > 5 µM
Structure (SMILES): COC1C(O)c2c(O)cccc2C2=C3CCC(=O)c4c(O)ccc(c43)C21 (centres undefined)

- MIC (Mucor hiemalis): 4.3 µg/mL (≈ 13.1 µM)
Structure (SMILES): COc1cccc2c3c(ccc12)-c1ccc(O)c2c(OC)ccc-3c12

More lines, now with the values behind:

Structure (SMILES): O=C1C(O)=c2c(c3cc(O)c(=O)c4c(O)ccc2c4-3)-c2cccc(O)c21
- IC50 (L929 [3]): 7 µM

Structure (SMILES): O=C1C[C@@H]2[C@H]3CCC(=O)c4c(O)ccc(c43)[C@]2(O)c2cccc(O)c21
- inhibition zone (IZ) (Bacillus subtilis): 11 mm
- inhibition zone (IZ) (Staphylococcus aureus): 12 mm

Structure (SMILES): CO[C@@H]1[C@H](OC)c2c(O)cccc2C2=C3CCC(=O)c4c(O)ccc(c43)[C@H]21
- IC50 [1]: 2.5 µM
- IC50 [2]: 0.76 µM

Structure (SMILES): O=C1C[C@@H]2[C@H]3CC[C@H](O)c4c(O)ccc(c43)[C@]2(O)c2cccc(O)c21
- IC50 (SW480): 9.59 µM
- inhibition zone (IZ) (Staphylococcus aureus): 10 mm
- inhibition zone (IZ) (Enterococcus faecalis): 10 mm

Structure (SMILES): CO[C@H]1C[C@H](O)C2=C3c4cccc(O)c4C(=O)[C@@H](O)[C@@H]3C3=CC=C(O)C1C32 (some centres undefined)
- IC50 (RAW264.7): 14.4 µM

Structure (SMILES): Oc1cccc2c3c(ccc12)-c1ccc(O)c2cccc-3c12
- IC50 (Splenocyte): 0.025 µg/mL (≈ 0.0879 µM)
- IC50 at 48 h [5]: 0.22 µg/mL (≈ 0.774 µM)

Structure (SMILES): O=C1C[C@H]2C(=C3c4c2ccc(O)c4[C@@H](O)C[C@H]3O)c2cccc(O)c21
- Activity [6]: 1.74%

Structure (SMILES): O=C1C[C@H](O)[C@H]2c3c(ccc(O)c31)-c1cc(O)c3c(O)cccc3c12
- IC50 (L929 [8]): 1.1 µM

Structure (SMILES): O=C1C[C@@H]2[C@@H]3CCC(=O)c4c(O)ccc(c43)[C@]2(O)c2cccc(O)c21
- LC50 (Caenorhabditis elegans): 25 µg/mL (≈ 74.3 µM)
- inhibition zone (IZ) (Bacillus subtilis): 10 mm
- inhibition zone (IZ) (Yarrowia lipolytica): 7 mm

Structure (SMILES): CO[C@@H]1[C@H](O)c2c(O)cccc2C2=C3CCC(=O)c4c(O)ccc(c43)[C@H]21
- IC50 [1]: 0.4 µM
- IC50 [2]: 0.06 µM

Structure (SMILES): O=C1c2c3c(cc(O)c2[C@H](O)[C@@H]2O[C@H]12)C1C=CC(O)=C2C(O)=CC=C3C21 (some centres undefined)
- LC50 (Caenorhabditis elegans): 50 µg/mL (≈ 143 µM)
- inhibition zone (IZ) (Bacillus subtilis): 11 mm
- inhibition zone (IZ) (Yarrowia lipolytica): 8 mm

Structure (SMILES): CO[C@H]1C[C@H](O)C2=C3c4cccc(O)c4C(=O)C[C@@H]3c3ccc(O)c1c32 [HYPOXYLONOL B]
- IC50 (RAW264.7): 21.1 µM

Structure (SMILES): O=C1C[C@H]2C(=C3CCC(=O)c4c(O)ccc2c43)c2cccc(O)c21
- MIC (Micrococcus luteus [9]): 16.7 µg/mL (≈ 52.5 µM)
- LC50 (Caenorhabditis elegans): 100 µg/mL (≈ 314 µM)
- IC50 (L929 [8]): 10.4 µM
- inhibition zone (IZ) (Bacillus subtilis): 11 mm
- inhibition zone (IZ) (Yarrowia lipolytica): 9 mm

Structure (SMILES): O=C1C[C@@H]2[C@H]3CC[C@@H](O)c4c(O)ccc(c43)[C@]2(O)c2cccc(O)c21
- inhibition zone (IZ) (Bacillus subtilis): 10 mm
- inhibition zone (IZ) (Enterococcus faecalis): 10 mm
